{
  "source": "patent US20050250137A1",
  "about": "“Molecular targets of cancer and aging” (priority 2002, published 2005)",
  "type_in_all_cases": "cell-based, human",
  "key": {"[1]": {"test_system": "normal skin fibroblast cell line 1502 (CRL-1502)", "assay": "Q-RT-PCR gene expression, normal fibroblasts 1502 treated or untreated with 5-aza-CdR", "conditions": "before and after 5azaCdR"}, "nonimmortal cells": {"test_system": "nonimmortal cells", "assay": "Senescence-like state in nonimmortal cells after 5Aza-dC", "conditions": "nonimmortal cells treated with 5Aza-dC"}, "[2]": {"test_system": "immortal (high passage) MDAH041 cells"}, "[3]": {"test_system": "immortal MDAH087 cell lines", "assay": "Senescence phenotype (morphology, senescence-associated β-galactosidase), immortal MDAH087 cell lines", "conditions": "5-aza-dC treatment of immortal MDAH087 cell lines"}},
  "data": [
    {"compound": "Nc1ncn([C@H]2C[C@H](O)[C@@H](CO)O2)c(=O)n1", "note": "[5-aza-dC, 5-aza-2′-deoxycytidine]", "values": [
      {"measurement": "(2-5′) oligoadenylate synthetase E gene OAS1 expression, 1502 vs. 1502 5aza", "setting": "[1]; ↑ increase", "result": "2↑ fold"},
      {"measurement": "CIG49 expression, 1502 vs. 1502 5aza", "setting": "[1]; ↑ increase", "result": "1.1↑ fold"},
      {"measurement": "Interferon-induced 17-kDa/15-kDA expression, 1502 vs. 1502 5aza", "setting": "[1]; ↑ increase", "result": "1.8↑ fold"},
      {"measurement": "Interferon-inducible protein p78 expression, 1502 vs. 1502 5aza", "setting": "[1]; ↑ increase", "result": "1.8↑ fold"},
      {"measurement": "Interferon-regulatory factor 7B expression, 1502 vs. 1502 5aza", "setting": "[1]; ↑ increase", "result": "1.5↑ fold"},
      {"measurement": "STAT 1, 91 kD expression, 1502 vs. 1502 5aza", "setting": "[1]; ↑ increase", "result": "1.8↑ fold"},
      {"measurement": "Interferon-inducible 56 kDa protein expression, 1502 vs. 1502 5aza", "setting": "[1]; ↓ decrease", "result": "1.2↓ fold"},
      {"measurement": "Interferon-inducible membrane protein 9-27 (IFITM1) expression, 1502 vs. 1502 5aza", "setting": "[1]; ↓ decrease", "result": "1.8↓ fold"},
      {"measurement": "MGSF expression, 1502 vs. 1502 5aza", "setting": "[1]; ↓ decrease", "result": "3.2↓ fold"},
      {"measurement": "MIF expression, 1502 vs. 1502 5aza", "setting": "[1]; ↓ decrease", "result": "1.7↓ fold"},
      {"measurement": "NDN expression, 1502 vs. 1502 5aza", "setting": "[1]; ↓ decrease", "result": "1.4↓ fold"},
      {"measurement": "induction of senescence-like state", "setting": "nonimmortal cells", "result": "does not result in an induction of an senescence-like state"},
      {"measurement": "(2-5′) oligoadenylate synthetase E gene OAS1 expression, MDAH041HP vs. MDAH0411HP 5aza", "setting": "[2]", "result": "1072↑ fold"},
      {"measurement": "ALDH1A3 expression, IM vs 5-aza-dC, QP", "setting": "[2]", "result": 7.84, "unit": "fold"},
      {"measurement": "CIG49 expression, MDAH041HP vs. MDAH0411HP 5aza", "setting": "[2]", "result": "204↑ fold"},
      {"measurement": "CLTB expression, IM vs 5-aza-dC, QP", "setting": "[2]", "result": 2.04, "unit": "fold"},
      {"measurement": "CREG expression, IM vs 5-aza-dC, QP", "setting": "[2]", "result": 2.88, "unit": "fold"},
      {"measurement": "HSPA2 expression, IM vs 5-aza-dC, QP", "setting": "[2]", "result": 2.74, "unit": "fold"},
      {"measurement": "IGFBP3 expression, IM vs 5-aza-dC, QP", "setting": "[2]", "result": 8.29, "unit": "fold"},
      {"measurement": "IGFBP4 expression, IM vs 5-aza-dC, QP", "setting": "[2]", "result": 7.00, "unit": "fold"},
      {"measurement": "Interferon-induced 17-kDa/15-kDA expression, MDAH041HP vs. MDAH0411HP 5aza", "setting": "[2]", "result": "443↑ fold"},
      {"measurement": "Interferon-inducible 56 kDa protein expression, MDAH041HP vs. MDAH0411HP 5aza", "setting": "[2]", "result": "1807↑ fold"},
      {"measurement": "Interferon-inducible membrane protein 9-27 (IFITM1) expression, MDAH041HP vs. MDAH0411HP 5aza", "setting": "[2]", "result": "278↑ fold"},
      {"measurement": "Interferon-inducible protein p78 expression, MDAH041HP vs. MDAH0411HP 5aza", "setting": "[2]", "result": "480↑ fold"},
      {"measurement": "Interferon-regulatory factor 7B expression, MDAH041HP vs. MDAH0411HP 5aza", "setting": "[2]", "result": "20031↑ fold"},
      {"measurement": "KIAA1750 expression, IM vs 5-aza-dC, QP", "setting": "[2]", "result": 3.86, "unit": "fold"},
      {"measurement": "MGSF expression, MDAH041HP vs. MDAH0411HP 5aza", "setting": "[2]", "result": "800↑ fold"},
      {"measurement": "MIF expression, MDAH041HP vs. MDAH0411HP 5aza", "setting": "[2]", "result": "130↑ fold"},
      {"measurement": "NDN expression, MDAH041HP vs. MDAH0411HP 5aza", "setting": "[2]", "result": "10↑ fold"},
      {"measurement": "OPTN expression, IM vs 5-aza-dC, QP", "setting": "[2]", "result": 9.21, "unit": "fold"},
      {"measurement": "SERPINB2 expression, IM vs 5-aza-dC, QP", "setting": "[2]", "result": 12.90, "unit": "fold"},
      {"measurement": "STAT 1, 91 kD expression, MDAH041HP vs. MDAH0411HP 5aza", "setting": "[2]", "result": "158↑ fold"},
      {"measurement": "STAT1α expression, IM vs 5-aza-dC, QP", "setting": "[2]", "result": 119.85, "unit": "fold"},
      {"measurement": "TNFAIP2 expression, IM vs 5-aza-dC, QP", "setting": "[2]", "result": 6.10, "unit": "fold"},
      {"measurement": "additional increase in hTERT RNA expression", "setting": "[2]", "result": 17, "unit": "fold"},
      {"measurement": "senescent phenotype of treated cells", "setting": "[3]", "result": "resulted in a flat senescence-like morphology and the activation of the senescence-associated β-galactosidase activity"}
    ]}
  ]
}
